This note sets out measurements from patent EP0184291B1, “Polyether antibiotic A80190” (ELI LILLY AND COMPANY, priority 1984, dated 1986).

Converted amounts (≈) assume the structure as drawn.

One data set concerns Caenorhabditis elegans. Put plainly: Anthelmintic activity. The class given is in vivo. The settings on record: read-out: active at levels as low as. The source says:
The A80190 compounds are also anthelmintic agents. For example, A80190 is active against Caenorhabditis elegans at levels as low as 20 ppm.

For the next data set, the system named is Bacteroides fragilis 111. In words: Agar-dilution assay, anaerobic bacteria. The settings on record: 24-hour incubation. The class given is cell-based. As for the experimental part: (§1) One important aspect of the antimicrobial activity of A80190 compounds relates to their activity against anaerobic bacteria. The minimal inhibitory concentrations (MIC's) at which A80190 inhibits various anaerobic bacteria, as determined by standard agar-dilution assay, are summarized in Table VII. End points were read after 24-hour incubation.

Data set [1] concerns Bacteroides fragilis 1877. In words: Agar-dilution assay, anaerobic bacteria. The class given is cell-based. The settings on record: 24-hour incubation. As for the experimental part: as §1
The subject of data set [2] is Eubacterium aerofaciens 1235. Put plainly: Agar-dilution assay, anaerobic bacteria. The class given is cell-based. The conditions noted are these: Collinsella aerofaciens, 24-hour incubation. As to the method:
as §1

The test system of data set [3] is Peptostreptococcus anaerobius 1428. In words: Agar-dilution assay, anaerobic bacteria. It counts as cell-based. The conditions noted are these: 24-hour incubation. As to the method: as §1
For data set [4], the system named is Bacteroides corrodens 1874. Put plainly: Agar-dilution assay, anaerobic bacteria. The conditions noted are these: Eikenella corrodens, 24-hour incubation. The class given is cell-based. As to the method: as §1
The subject of data set [5] is Bacteroides melaninogenicus 2736. In words: Agar-dilution assay, anaerobic bacteria. The settings on record: 24-hour incubation. It counts as cell-based. As for the experimental part:
as §1

Data set [6] deals with Clostridium septicum 1128. Put plainly: Agar-dilution assay, anaerobic bacteria. It counts as cell-based. The settings on record: 24-hour incubation. As for the experimental part:
as §1

For data set [7], the system named is Propionibacterium acnes 79. In words: Agar-dilution assay, anaerobic bacteria. The conditions noted are these: Cutibacterium acnes, 24-hour incubation. The class given is cell-based. As to the method: as §1
A further data set concerns Petococcus prevoti 1281. Put plainly: Agar-dilution assay, anaerobic bacteria. It counts as cell-based. The conditions noted are these: 24-hour incubation. As for the experimental part:
as §1

The subject of data set [8] is Fusobacterium necrophorum 6054A. Put plainly: Agar-dilution assay, anaerobic bacteria. The class given is cell-based. The conditions noted are these: 24-hour incubation. As to the method:
as §1

The subject of data set [9] is Bacteroides vulgatis 1211. In words: Agar-dilution assay, anaerobic bacteria. The class given is cell-based. The conditions noted are these: 24-hour incubation. As for the experimental part:
as §1

Data set [10] deals with Fusobacterium symbiosum 1470. Put plainly: Agar-dilution assay, anaerobic bacteria. The class given is cell-based. The settings on record: 24-hour incubation. As for the experimental part:
as §1

For data set [11], the system named is Bacteroides fragilis 1936B. In words: Agar-dilution assay, anaerobic bacteria. The class given is cell-based. The conditions noted are these: 24-hour incubation. As to the method:
as §1

In data set [12] the test system is Peptococcus asaccharolyticus 1302. Put plainly: Agar-dilution assay, anaerobic bacteria. The class given is cell-based. The settings on record: Peptoniphilus asaccharolyticus, 24-hour incubation. As for the experimental part:
as §1

Data set [13] concerns Bacteroides melaninogenicus 1856/28. Put plainly: Agar-dilution assay, anaerobic bacteria. The class given is cell-based. The settings on record: Prevotella intermedia, 24-hour incubation. As for the experimental part: as §1
Data set [14] concerns Clostridium difficile 2994. In words: Agar-dilution assay, anaerobic bacteria. It counts as cell-based. The conditions noted are these: Clostridioides difficile, 24-hour incubation. As for the experimental part:
as §1

For data set [15], the system named is Peptostreptococcus intermedius 1624. Put plainly: Agar-dilution assay, anaerobic bacteria. The settings on record: 24-hour incubation. It counts as cell-based. As for the experimental part: as §1
The test system of data set [16] is Bacteroides thetaiotaomicron 1438. In words: Agar-dilution assay, anaerobic bacteria. The class given is cell-based. The settings on record: 24-hour incubation. As to the method:
as §1

The nature of a further data set: Solubility. It counts as physicochemical.

Regarding `CC[C@@H](O)[C@]1(C)C[C@H](C)[C@@](O)([C@H]2C[C@H](C)[C@H]([C@]3(C)C[C@@H](O[C@H]4CC[C@H](OC)[C@@H](C)O4)[C@H]([C@@H]4CC[C@@]5(O[C@H]([C@@H](C)[C@@H](OC)[C@H](C)C(=O)O)[C@H](C)[C@@H](OC)[C@H]5C)O4)O3)O2)O1` [Example A80190], the minimal effective concentration in the data set with Caenorhabditis elegans stood at 20 µg/mL. In addition, the MIC in the data set on Bacteroides fragilis 111 was greater than 128 µg/mL; in data set [1], greater than 128 µg/mL; in data set [2] it was less than 0.5 µg/mL; in [3], 1 µg/mL (≈ 1.21 µM); in data set [4] it was greater than 128 µg/mL; in [5], greater than 128 µg/mL. For the same compound, the MIC in data set [6] is less than 0.5 µg/mL; in data set [7] it was 1 µg/mL (≈ 1.21 µM); against Petococcus prevoti 1281, less than 0.5 µg/mL; in data set [8] it was 16 µg/mL (≈ 19.3 µM); in [9] it was 16 µg/mL (≈ 19.3 µM); in data set [10], 8 µg/mL (≈ 9.65 µM). For the same compound, the MIC is greater than 128 µg/mL in data set [11]; 1 µg/mL (≈ 1.21 µM) in [12]; greater than 128 µg/mL in data set [13]; less than 0.5 µg/mL in [14]; 1 µg/mL (≈ 1.21 µM) in [15]; greater than 128 µg/mL in [16]. Moreover, the Solubility entry in “Solubility” (lower alcohols such as methanol, ketones such as acetone, esters such as ethyl acetate, halogenated hydrocarbons such as chloroform, diethyl ether, benzene, toluene, warm hexane) is “soluble”; in the data set “Solubility” (water), “Insoluble”.
